Measured values reported in patent publication US20150252022A1, “RETINOIC ACID RECEPTOR-RELATED ORPHAN RECEPTOR MODULATORS AND USES THEREOF” (INNOV17 LLC, priority 2014, published 2015).

Tests used:
Type in all cases: cell-based
Conditions in all cases: 72 h; human CD4+ T cells under TH17-polarizing conditions, 3 days, supernatant ELISA
[1] = test system: IL-17A; assay: Human TH17 Cytokine Inhibition as measured by ELISA (IL-17A)
Description: (§1) Peripheral blood mononuclear cells (PBMCs) were sourced from freshly prepared leukocyte enriched plasma (buffy coat) from healthy donors (New York Blood Center). PBMCs were isolated by density gradient centrifugation using Ficoll-Paque™ PLUS (GE Healthcare). Human CD4+ T cells were seeded into 96-well plates (5×10^4 cells/well) and activated with plate-bound anti-human (h)-CD3 antibody and soluble h-aCD28 (both at 1 ug/ml; eBioscience) and differentiated into TH17 cells with 20 ng/mL h-IL-6, 5 ng/mL h-TGF-β1, 10 ng/mL h-IL-23 (eBioscience) and 10 ng/mL IL-1β (Miltenyi Biotec) in serum-free TexMACS Medium (Miltenyi Biotec) supplemented with 1% Penicillin/Streptomycin (Lonza) for 3 days. CD4+ T cells propagated under TH17-polarizing conditions were cultured in the presence or absence of various concentrations of compounds with a final concentration of 0.1% DMSO. Supernatants were collected and stored at −20° C. until assayed for IL-17A, IL-17F and IL-21 levels by “Ready-Set-Go” ELISA kits (eBioscience) as per manufacturer's instructions. Endpoint absorbance was read at 450 nm using a microplate reader (Perkin Elmer).

[2] = test system: IL-17F; assay: Human TH17 Cytokine Inhibition as measured by ELISA (IL-17F)
Description: as §1

[3] = test system: IL-21; assay: Human TH17 Cytokine Inhibition as measured by ELISA (IL-21)
Description: as §1

Row | SMILES | IC50 [1] [µM] | IC50 [2] [µM] | IC50 [3] [µM]
1 | Cc1cc2cc(-c3cn[nH]c3)ccc2n1CC1CC(C)N(C(=O)CCc2ccccc2)C1 (racemic) [Example 131, rac-1-(2-methyl-4-((2-methyl-5-(1H-pyrazol-4-yl)-1H-indol-1-yl)methyl)pyrrolidin-1-yl)-3-phenylpropan-1-one] | < 10 | < 10 | < 10
2 | C[C@H]1C[C@@H](Cn2ccc3cc(-c4cn[nH]c4)ccc32)CN1C(=O)CCc1ccccc1 (relative stereo) [Example 127, cis-1-(4-((5-(1H-pyrazol-4-yl)-1H-indol-1-yl)methyl)-2-methylpyrrolidin-1-yl)-3-phenylpropan-1-one] | < 10 | < 10 | < 10
3 | C[C@@H]1C[C@@H](Cn2ccc3cc(-c4cn[nH]c4)ccc32)CN1C(=O)CCc1ccccc1 (relative stereo) [Example 129, trans-1-(4-((5-(1H-pyrazol-4-yl)-1H-indol-1-yl)methyl)-2-methylpyrrolidin-1-yl)-3-phenylpropan-1-one] | < 10 | < 10 | < 10
4 | O=C(c1ccccc1)N1CCC(CN2CCc3cc(-c4cn[nH]c4)ccc32)C1 (centres unmarked) [Example 9, (3-((5-(1H-pyrazol-4-yl)indolin-1-yl)methyl)pyrrolidin-1-yl)(phenyl)methanone] | < 10 | > 10 | > 10
5 | O=C(Cc1ccccc1)N1CCC(CN2CCc3cc(-c4cn[nH]c4)ccc32)C1 (centres unmarked) [Example 10, 1-(3-((5-(1H-pyrazol-4-yl)indolin-1-yl)methyl)pyrrolidin-1-yl)-2-phenylethanone] | < 10 | < 10 | < 10
6 | O=C(CCc1ccccc1)N1CCC(CN2CCc3cc(-c4cn[nH]c4)ccc32)C1 (centres unmarked) [Example 11, 1-(3-((5-(1H-pyrazol-4-yl)indolin-1-yl)methyl)pyrrolidin-1-yl)-3-phenylpropan-1-one] | < 10 | < 10 | < 10
7 | O=C(C1CCCCC1)N1CCC(CN2CCc3cc(-c4cn[nH]c4)ccc32)C1 (centres unmarked) [Example 12, (3-((5-(1H-pyrazol-4-yl)indolin-1-yl)methyl)pyrrolidin-1-yl)(cyclohexyl)methanone] | < 10 | < 10 | > 10
8 | O=C(CC1CCCCC1)N1CCC(CN2CCc3cc(-c4cn[nH]c4)ccc32)C1 (centres unmarked) [Example 13, 1-(3-((5-(1H-pyrazol-4-yl)indolin-1-yl)methyl)pyrrolidin-1-yl)-2-cyclohexylethanone] | < 10 | < 10 | > 10
9 | CC(C)CC(=O)N1CCC(CN2CCc3cc(-c4cn[nH]c4)ccc32)C1 (centres unmarked) [Example 14, 1-(3-((5-(1H-pyrazol-4-yl)indolin-1-yl)methyl)pyrrolidin-1-yl)-3-methylbutan-1-one] | < 10 | < 10 | > 10
10 | CC(C)C(=O)N1CCC(CN2CCc3cc(-c4cn[nH]c4)ccc32)C1 (centres unmarked) [Example 15, 1-(3-((5-(1H-pyrazol-4-yl)indolin-1-yl)methyl)pyrrolidin-1-yl)-2-methylpropan-1-one] | > 10 | > 10 | < 10
11 | CC1CC(CN2CCc3cc(-c4cn[nH]c4)ccc32)CN1C(=O)c1ccccc1 (centres unmarked) [Example 24, (4-((5-(1H-pyrazol-4-yl)indolin-1-yl)methyl)-2-methylpyrrolidin-1-yl)(phenyl)methanone] | < 10 | < 10 | < 10
12 | CC1CC(CN2CCc3cc(-c4cn[nH]c4)ccc32)CN1C(=O)Cc1ccccc1 (centres unmarked) [Example 25, 1-(4-((5-(1H-pyrazol-4-yl)indolin-1-yl)methyl)-2-methylpyrrolidin-1-yl)-2-phenylethanone] | < 10 | < 10 | < 10
13 | CC1CC(CN2CCc3cc(-c4cn[nH]c4)ccc32)CN1C(=O)CCc1ccccc1 (centres unmarked) [Example 26, 1-(4-((5-(1H-pyrazol-4-yl)indolin-1-yl)methyl)-2-methylpyrrolidin-1-yl)-3-phenylpropan-1-one] | < 10 | < 10 | < 10
14 | CC1CC(CN2CCc3cc(-c4cn[nH]c4)ccc32)CN1C(=O)C1CCCCC1 (centres unmarked) [Example 27, (4-((5-(1H-pyrazol-4-yl)indolin-1-yl)methyl)-2-methylpyrrolidin-1-yl)(cyclohexyl)methanone] | < 10 | < 10 | < 10
15 | CC1CC(CN2CCc3cc(-c4cn[nH]c4)ccc32)CN1C(=O)CC1CCCCC1 (centres unmarked) [Example 28, 1-(4-((5-(1H-pyrazol-4-yl)indolin-1-yl)methyl)-2-methylpyrrolidin-1-yl)-2-cyclohexylethanone] | < 10 | < 10 | < 10
16 | CC(C)CC(=O)N1CC(CN2CCc3cc(-c4cn[nH]c4)ccc32)CC1C (centres unmarked) [Example 29, 1-(4-((5-(1H-pyrazol-4-yl)indolin-1-yl)methyl)-2-methylpyrrolidin-1-yl)-3-methylbutan-1-one] | < 10 | < 10 | < 10
17 | CC(C)C(=O)N1CC(CN2CCc3cc(-c4cn[nH]c4)ccc32)CC1C (centres unmarked) [Example 30, 1-(4-((5-(1H-pyrazol-4-yl)indolin-1-yl)methyl)-2-methylpyrrolidin-1-yl)-2-methylpropan-1-one] | < 10 | < 10 | < 10
18 | O=C(c1ccccc1)N1CCC(CN2CCc3cc(-c4cn[nH]c4)ccc32)CC1 [Example 39, (4-((5-(1H-pyrazol-4-yl)indolin-1-yl)methyl)piperidin-1-yl)(phenyl)methanone] | < 10 | < 10 | > 10
19 | O=C(Cc1ccccc1)N1CCC(CN2CCc3cc(-c4cn[nH]c4)ccc32)CC1 [Example 40, 1-(4-((5-(1H-pyrazol-4-yl)indolin-1-yl)methyl)piperidin-1-yl)-2-phenylethanone] | < 10 | < 10 | < 10
20 | O=C(CCc1ccccc1)N1CCC(CN2CCc3cc(-c4cn[nH]c4)ccc32)CC1 [Example 41, 1-(4-((5-(1H-pyrazol-4-yl)indolin-1-yl)methyl)piperidin-1-yl)-3-phenylpropan-1-one] | < 10 | < 10 | < 10
21 | O=C(C1CCCCC1)N1CCC(CN2CCc3cc(-c4cn[nH]c4)ccc32)CC1 [Example 42, (4-((5-(1H-pyrazol-4-yl)indolin-1-yl)methyl)piperidin-1-yl)(cyclohexyl)methanone] | < 10 | < 10 | < 10
22 | O=C(CC1CCCCC1)N1CCC(CN2CCc3cc(-c4cn[nH]c4)ccc32)CC1 [Example 43, 1-(4-((5-(1H-pyrazol-4-yl)indolin-1-yl)methyl)piperidin-1-yl)-2-cyclohexylethanone] | < 10 | < 10 | < 10
23 | CC(C)CC(=O)N1CCC(CN2CCc3cc(-c4cn[nH]c4)ccc32)CC1 [Example 44, 1-(4-((5-(1H-pyrazol-4-yl)indolin-1-yl)methyl)piperidin-1-yl)-3-methylbutan-1-one] | < 10 | < 10 | > 10
24 | O=C(c1ccccc1)N1CCC(Cn2ccc3cc(-c4cn[nH]n4)ccc32)CC1 [Example 130, (4-((5-(2H-1,2,3-triazol-4-yl)-1H-indol-1-yl)methyl)piperidin-1-yl)(phenyl)methanone] | < 10 | < 10 | 
